Results published in PMC2859624 (Progress in neuro-psychopharmacology & biological psychiatry, 2010).
Like-named read-outs stand apart in the source and are kept apart here.

What was measured:
α1β3γ2 GABAA receptors [1] = target: T1, α1β3γ2 GABAA receptors (Rattus norvegicus, UniProt P18508+P62813); details: 100 nM, EC3 GABA, mean ± SEM; ref Rivas et al., 2009; cited from earlier work
male Wistar rats [2] = experiment: Spontaneous locomotor activity; details: for dose inducing a hypolocomotor effect in the SLA: i.p.; for effect on total distance travelled during 45 min: 20 min before test, vs solvent; for effect on total distance (locomotion), 30 min: Dunnett's test
α5β3γ2 GABAA receptors [3] = target: T2, α5β3γ2 GABAA receptors (Rattus norvegicus, UniProt P18508+P19969); details: 100 nM, EC3 GABA, mean ± SEM; ref Rivas et al., 2009; cited from earlier work
male Wistar rats [4] = experiment: Elevated plus maze; format: in vivo, rat; details: for effect on percentage of time on open arms: post hoc p 0.032
α2β3γ2 GABAA receptors [5] = target: T3, α2β3γ2 GABAA receptors (Rattus norvegicus, UniProt P18508+P23576); details: 100 nM, EC3 GABA, mean ± SEM; ref Rivas et al., 2009; cited from earlier work
[6] = target: human GABAA receptor containing α3 subunit (BZ site) (Homo sapiens, UniProt P18507+P34903); experiment: Competition binding assay with [3H]flunitrazepam; details: read-out: Ki α3, transfected HEK 293T, duplicate
α3β3γ2 GABAA receptors [7] = target: T4, α3β3γ2 GABAA receptors (Rattus norvegicus, UniProt P18508+P20236); details: 100 nM, EC3 GABA, mean ± SEM; ref Rivas et al., 2009; cited from earlier work
[8] = target: human GABAA receptor containing α5 subunit (BZ site) (Homo sapiens, UniProt P18507+P31644); experiment: Competition binding assay with [3H]flunitrazepam
male Wistar rats [9] = experiment: Morris water maze; format: in vivo, rat; details: for platform zone entries during the probe trial: after five-day treatment at 30 mg/kg i.p.; for overall influence on water maze learning parameters (acquisition): 5 days
[10] = target: human GABAA receptor containing α4 subunit (BZ site); details: read-out: Ki α4; second independent set of experiments
α3β3γ2 GABAA receptors [11] = target: T4, α3β3γ2 GABAA receptors; format: cell-based; details: for remaining activity at 0.1 µM: read-out: % of control current, α3β3γ2, 100 nM, EC3 GABA, mean ± SEM
α1β3γ2 GABAA receptors [12] = target: T1, α1β3γ2 GABAA receptors; format: cell-based
α2β3γ2 GABAA receptors [13] = target: T3, α2β3γ2 GABAA receptors; format: cell-based; details: for % of control current, α2β3γ2: 100 nM, EC3 GABA, mean ± SEM, 0.1 µM
α5β3γ2 GABAA receptors [14] = target: T2, α5β3γ2 GABAA receptors; format: cell-based; details: for % of control current, α5β3γ2: 100 nM, EC3 GABA, mean ± SEM
[15] = target: human GABAA receptor containing α6 subunit (BZ site) (Homo sapiens, UniProt P18507+Q16445); experiment: Competition binding assay with [3H]flunitrazepam; details: read-out: Ki α6, transfected HEK 293T, duplicate
male Wistar rats [16] = details: 30 mg/kg; ref Savić et al., 2008b; cited from earlier work
male Wistar rats [17] = details: ref Savić et al., 2008b, cited from earlier work
[18] = read-out: % of control current, α1β3γ2
[19] = zolpidem 0.5 mg/kg during acquisition, ±SEM
[20] = zolpidem 1.0 mg/kg during acquisition, ±SEM
[21] = zolpidem 2.0 mg/kg during acquisition, ±SEM
[22] = zolpidem 2.0 mg/kg during acquisition, ±SEM, P<0.05 vs ZOL 0.5

SMILES: C#Cc1ccc2c(c1)C(c1ccccc1F)=NCc1c(C(=O)OCC)ncn1-2 [JY-XHe-053, 8-ethynyl-6-(2-fluorophenyl)-4H-2,5,10b-triaza-benzo[e]azulene-3-carboxylic acid ethyl ester]
- % of control current, α1β3γ2 (α1β3γ2 GABAA receptors [1]): 169%
- effect on central zone activity (male Wistar rats [2]; 2.5-40 mg/kg i.p., 30 min): not discernible
- effect on peripheral zone distance (male Wistar rats [2]; 2.5-40 mg/kg i.p., 30 min, vs control): three higher doses of JYXHe-053 were significantly different from control
- dose inducing a hypolocomotor effect in the SLA (male Wistar rats [2]): ≥ 10 mg/kg
- % of control current, α5β3γ2 (α5β3γ2 GABAA receptors [3]): 220%
- general activity and anxiety-related parameters (male Wistar rats [4]; 2.5-40 mg/kg i.p.): devoid of significant behavioral activity
- % of control current, α2β3γ2 (α2β3γ2 GABAA receptors [5]): 307 ± 14%
- Ki [6]: 0.0349 µM
- % of control current, α3β3γ2 (α3β3γ2 GABAA receptors [7]): 345 ± 26%
- binding selectivity for GABAA receptors containing the α5 subunit ([8]; from Ki values): approximately 18 fold

SMILES: C#Cc1ccc2c(c1)C(c1ccccn1)=NCc1c(C(=O)OCC)ncn1-2 [SH-053-2'N, 8-ethynyl-6-(2’-pyrydine)-4H-2,5,10b-triaza-benzo[e]azulene-3-carboxylic acid ethyl ester]
- % of control current, α1β3γ2 (α1β3γ2 GABAA receptors [1]): 113 ± 2%
- effect on total distance travelled during 45 min (male Wistar rats [2]; 30 mg/kg i.p.): activity-depressing effect of all three treatments was significant
- dose inducing a hypolocomotor effect in the SLA (male Wistar rats [2]): 30 mg/kg
- % of control current, α5β3γ2 (α5β3γ2 GABAA receptors [3]): 130 ± 3%
- effect on percentage of time on open arms (male Wistar rats [4]; 30 mg/kg i.p.): effective treatments
- effect on total arm entries (male Wistar rats [4]; 10, 20 and 30 mg/kg i.p., Dunnett's test vs solvent): significant effect of the two higher doses
- effect on distance travelled in the open arms (male Wistar rats [4]; 10, 20 and 30 mg/kg i.p., overall treatment effect): no significant effect of treatment
- effect on percentage of open arm entries (male Wistar rats [4]; 10, 20 and 30 mg/kg i.p., post hoc test): neither of the single doses was significant on its own
- latency to find the platform, single day (male Wistar rats [9]; 30 mg/kg i.p., vs control or SH-053-S-CH3-2'F 30 mg/kg): significantly longer search time on the fourth day
- platform zone entries during the probe trial (male Wistar rats [9]): lack of incapacitating consequences
- % of control current, α2β3γ2 (α2β3γ2 GABAA receptors [5]): 165 ± 2%
- % of control current, α3β3γ2 (α3β3γ2 GABAA receptors [7]): 149 ± 3%
- Ki [10]: > 5 µM

SMILES: C#Cc1ccc2c(c1)C(c1ccccc1F)=NC(C)c1c(C(=O)OCC)ncn1-2 (centres unmarked) [SH-053-R-CH3-2'F, 8-ethynyl-6-(2-fluorophenyl)-4-methyl-4H-2,5,10b-triaza-benzo[e]azulene-3-carboxylic acid ethyl ester]
- effect on total distance (locomotion), 30 min (male Wistar rats [2]; 30 mg/kg i.p.): significantly depressed locomotion
- effect on distance travelled in 5-min bins (male Wistar rats [2]; 10, 20 and 30 mg/kg i.p., 6 intervals): did not significantly decrease locomotion
- effect on central and peripheral zone locomotion (male Wistar rats [2]; 20 and 30 mg/kg i.p.): decreased central, but not peripheral locomotion
- general activity- or anxiety-related parameters (male Wistar rats [4]; doses up to 30 mg/kg i.p.): completely devoid of changes
- platform zone entries during the probe trial (male Wistar rats [9]): lack of incapacitating consequences
- % of control current, α3β3γ2 (α3β3γ2 GABAA receptors [11]; 100 nM, EC3 GABA, mean ± SEM, 0.1 µM): 125 ± 8%
- remaining activity at 0.1 µM (α1β3γ2 GABAA receptors [12]; [18]): 111 ± 2%
- % of control current, α2β3γ2 (α2β3γ2 GABAA receptors [13]): 124 ± 9%
- % of control current, α5β3γ2 (α5β3γ2 GABAA receptors [14]; 0.1 µM): 183 ± 7%

SMILES: C#Cc1ccc2c(c1)C(c1ccccc1F)=NC(C)c1c(C(=O)OCC)ncn1-2 (centres unmarked) [SH-053-S-CH3-2'F, 8-ethynyl-6-(2-fluorophenyl)-4-methyl-4H-2,5,10b-triaza-benzo[e]azulene-3-carboxylic acid ethyl ester]
- Ki [15]: > 5 µM
- platform zone entries during the probe trial (male Wistar rats [9]): lack of incapacitating consequences
- remaining activity at 0.1 µM (α3β3γ2 GABAA receptors [11]): 138 ± 5%
- % of control current, α1β3γ2 (α1β3γ2 GABAA receptors [12]; 100 nM, EC3 GABA, mean ± SEM): non-significant changes relative to control current
- remaining activity at 1 µM (α1β3γ2 GABAA receptors [12]; [18]): 164 ± 6%
- % of control current, α2β3γ2 (α2β3γ2 GABAA receptors [13]): 169 ± 5%
- effect on percentage of open arm entries (male Wistar rats [16]): significant effect
- effect on percentage of time on open arms (male Wistar rats [16]): significant effect
- effects on general activity-related parameters (male Wistar rats [16]): without concomitant effects
- % of control current, α5β3γ2 (α5β3γ2 GABAA receptors [14]; 0.1 µM): 218 ± 4%
- effect on locomotor activity (male Wistar rats [17]; 30 mg/kg): significant decrease of locomotor activity
- dose inducing a hypolocomotor effect in the SLA (male Wistar rats [17]): 30 mg/kg

SMILES: CN1C(=O)CN=C(c2ccccc2)c2cc(Cl)ccc21 [diazepam]
- effect on total distance travelled during 45 min (male Wistar rats [2]; 1.25 mg/kg i.p.): activity-depressing effect of all three treatments was significant
- effect on distance travelled in 5-min bins (male Wistar rats [2]; 2 mg/kg i.p.): induced overt sedation during the first 10 min of recording
- effect on total distance (locomotion), 30 min (male Wistar rats [2]; 2 mg/kg i.p.): significantly depressed locomotion
- effect on percentage of time on open arms (male Wistar rats [4]; 2.0 mg/kg i.p.): effective treatments
- remaining activity at 0.1 µM (α3β3γ2 GABAA receptors [11]): 461 ± 34%
- remaining activity at 0.1 µM (α1β3γ2 GABAA receptors [12]; [18]): 246 ± 16%
- remaining activity at 0.1 µM (α2β3γ2 GABAA receptors [13]; read-out: % of control current, α2β3γ2, 100 nM, EC3 GABA, mean ± SEM): 400 ± 22%
- remaining activity at 0.1 µM (α5β3γ2 GABAA receptors [14]; read-out: % of control current, α5β3γ2, 100 nM, EC3 GABA, mean ± SEM): 322 ± 7%

SMILES: Cc1ccc(-c2nc3ccc(C)cn3c2CC(=O)N(C)C)cc1 [zolpidem]
- overall influence on water maze learning parameters (acquisition) (male Wistar rats [9]; 0.5 mg/kg i.p. daily, vs control): different related to control
- percent of distance travelled in the NE quadrant that was in the target region (male Wistar rats [9]; 2 mg/kg i.p., day 5 of acquisition, chance 40%): 40.5%
- overall influence on water maze learning parameters (acquisition) (male Wistar rats [9]; 1 and 2 mg/kg i.p. daily, vs 0.5 mg/kg): behaviorally impaired related to 0.5 mg/kg zolpidem
- Peripheral ring distance, probe trial (male Wistar rats [9]; [19]): 4.16±0.61 m
- Peripheral ring time, probe trial (male Wistar rats [9]; [19]): 33.48 ± 3.68 s
- Platform distance, probe trial (male Wistar rats [9]; [19]): 0.097±0.031 m
- Platform number of entries, probe trial (male Wistar rats [9]; [19]): 1.25±0.41
- Platform quadrant (NE) distance, probe trial (male Wistar rats [9]; [19]): 2.41±0.29 m
- Platform quadrant (NE) time, probe trial (male Wistar rats [9]; [19]): 11.86 ± 1.44 s
- Platform ring distance, probe trial (male Wistar rats [9]; [19]): 5.27±0.68 m
- Platform ring time, probe trial (male Wistar rats [9]; [19]): 21.46 ± 3.05 s
- Target region distance, probe trial (male Wistar rats [9]; [19]): 1.51±0.27 m
- Target region time, probe trial (male Wistar rats [9]; [19]): 7.26 ± 1.36 s
- Peripheral ring distance, probe trial (male Wistar rats [9]; [20]): 6.09±0.89 m
- Peripheral ring time, probe trial (male Wistar rats [9]; [20]): 39.86 ± 1.67 s
- Platform distance, probe trial (male Wistar rats [9]; [20]): 0.047±0.028 m
- Platform number of entries, probe trial (male Wistar rats [9]; [20]): 0.38±0.18
- Platform quadrant (NE) distance, probe trial (male Wistar rats [9]; [20]): 2.18±0.51 m
- Platform ring distance, probe trial (male Wistar rats [9]; [20]): 4.48±0.31 m
- Platform ring time, probe trial (male Wistar rats [9]; [20]): 17.31 ± 1.38 s
- Target region distance, probe trial (male Wistar rats [9]; [20]): 1.12±0.14 m
- Target region time, probe trial (male Wistar rats [9]; zolpidem 1.0 mg/kg during acquisition, ±SEM, P<0.05 vs ZOL 0.5): 4.03 ± 0.52 s
- Peripheral ring time, probe trial (male Wistar rats [9]; [21]): 42.80 ± 3.35 s
- Platform distance, probe trial (male Wistar rats [9]; [21]): 0.053±0.023 m
- Platform number of entries, probe trial (male Wistar rats [9]; [21]): 0.50±0.19
- Platform quadrant (NE) distance, probe trial (male Wistar rats [9]; [21]): 2.22±0.44 m
- Platform ring distance, probe trial (male Wistar rats [9]; [21]): 4.00±0.65 m
- Platform ring time, probe trial (male Wistar rats [9]; [21]): 14.50 ± 2.60 s
- Target region distance, probe trial (male Wistar rats [9]; [21]): 0.99±0.22 m
- Peripheral ring distance, probe trial (male Wistar rats [9]; [22]): 7.85±0.82 m
- Target region time, probe trial (male Wistar rats [9]; [22]): 3.51 ± 0.76 s
- remaining activity at 0.1 µM (α1β3γ2 GABAA receptors [12]; [18]): 180 ± 14%
- % of control current, α5β3γ2 (α5β3γ2 GABAA receptors [14]): non-significant changes relative to control current
- Ki ([8]; read-out: Ki α5, [3H]flunitrazepam, transfected HEK 293T, duplicate): > 10 µM
